A short description of test [1]: Ratio of Kapp for synthetic poly(dA-dT)]2 oligonucleotide to Kapp for synthetic poly(dG-dC)]2 oligonucleotide.
The subject of test [2] is HT-29. Description: Cytotoxicity against human HT29 cells after 72 hrs. In kind it is functional. The settings on record: HT-29, 72 h.
The subject of test [3] is HT-29. Description: Effect on apoptosis in human HT29 PI-/AnnV- cells after 6 hrs by biparametric flow cytometric analysis. In kind it is functional. The settings on record: HT-29, 6 h, read-out: LC50 (the source's name). (In flow cytometry, cells or beads pass a laser one at a time.)
Test [4] concerns HT-29. The experiment in a line: Effect on apoptosis in human HT29 PI+/AnnV- cells after 6 hrs by biparametric flow cytometric analysis. In kind it is functional. The settings on record: HT-29, 6 h, read-out: LC50 (the source's name).
The subject of test [5] is HT-29. The experiment in a line: Effect on apoptosis in human HT29 PI-/AnnV+ cells after 6 hrs by biparametric flow cytometric analysis. Particulars: HT-29, 6 h, read-out: LC50 (the source's name). Format: functional.
Test [6] concerns HT-29. Description: Effect on apoptosis in human HT29 PI+/AnnV+ cells after 6 hrs by biparametric flow cytometric analysis. In kind it is functional. The settings on record: HT-29, 6 h, read-out: LC50 (the source's name).
The subject of test [7] is HT-29. The experiment in a line: Effect on apoptosis in human HT29 PI-/AnnV- cells after 12 hrs by biparametric flow cytometric analysis. Format: functional. The settings on record: HT-29, 12 h, read-out: LC50 (the source's name).
Test [8] has as its system HT-29. The experiment in a line: Effect on apoptosis in human HT29 PI+/AnnV- cells after 12 hrs by biparametric flow cytometric analysis. Format: functional. Particulars: HT-29, 12 h, read-out: LC50 (the source's name).
Test [9] concerns HT-29. The experiment in a line: Effect on apoptosis in human HT29 PI-/AnnV+ cells after 12 hrs by biparametric flow cytometric analysis. Format: functional. Particulars: HT-29, 12 h, read-out: LC50 (the source's name).
The test system of test [10] is HT-29. Description: Effect on apoptosis in human HT29 PI+/AnnV+ cells after 12 hrs by biparametric flow cytometric analysis. In kind it is functional. The settings on record: HT-29, 12 h, read-out: LC50 (the source's name).
The subject of test [11] is HT-29. The experiment in a line: Effect on apoptosis in human HT29 PI-/AnnV- cells after 24 hrs by biparametric flow cytometric analysis. In kind it is functional. The settings on record: HT-29, 24 h, read-out: LC50 (the source's name).
In test [12] the test system is HT-29. Description: Effect on apoptosis in human HT29 PI+/AnnV- cells after 24 hrs by biparametric flow cytometric analysis. In kind it is functional. Particulars: HT-29, 24 h, read-out: LC50 (the source's name).
For test [13], the system named is HT-29. Description: Effect on apoptosis in human HT29 PI-/AnnV+ cells after 24 hrs by biparametric flow cytometric analysis. In kind it is functional. The settings on record: HT-29, 24 h, read-out: LC50 (the source's name).
Test [14] deals with HT-29. The experiment in a line: Effect on apoptosis in human HT29 PI+/AnnV+ cells after 24 hrs by biparametric flow cytometric analysis. Particulars: HT-29, 24 h, read-out: LC50 (the source's name). In kind it is functional.

Consider `CCN(CC)CCNc1ccc(NCCCN(C)CCCNc2ccc(NCCN(CC)CC)c3c2C(=O)c2cnccc2C3=O)c2c1C(=O)c1ccncc1C2=O`, for which the Ratio in [1] amounted to 3.5. In the test with HT-29 [2], this compound displayed a GI50 of 4.5 µM, an LC50 (concentration killing 50% of cells) greater than 100 µM and a TGI of 32 µM.
In the test with HT-29 [2], `CN(C)CCCn1nc2c3c(c(NCCCN(C)CCCNc4ccc5c6c(nn5CCCN(C)C)-c5ccncc5C(=O)c46)ccc31)C(=O)c1cnccc1-2` gave a GI50 of 40 µM, an LC50 (concentration killing 50% of cells) greater than 100 µM and a TGI greater than 100 µM.
Take `CN(C)CCCNc1ccc(NCCCN(C)CCCNc2ccc(NCCCN(C)C)c3c2C(=O)c2ccncc2C3=O)c2c1C(=O)c1cnccc1C2=O`: the Ratio in test [1] was 1.9. The GI50 in the test on HT-29 [2] was greater than 100 µM.
Take `CN(C)CCNc1ccc(NCCCN(C)CCCNc2ccc(NCCN(C)C)c3c2C(=O)c2ccncc2C3=O)c2c1C(=O)c1cnccc1C2=O`: in test [1], the Ratio was determined as 7.7. Further, the GI50 in the test on HT-29 [2] was greater than 100 µM.
`NCCNc1ccc(NCCN)c2c1C(=O)c1ccncc1C2=O` [PIXANTRONE] showed a GI50 in the test on HT-29 [2] of 0.0012 µM. For the same compound, net growth in the test on HT-29 [2] stopped (TGI) at 3.2 µM. In addition, the CC50 in the test with HT-29 [3] was 60.4 µM; in the test with HT-29 [4] it was 4.8 µM; with HT-29 [5], 32.5 µM; in the test with HT-29 [6] it was 2.3 µM; in the test on HT-29 [7] it was 50.4 µM; with HT-29 [8], 5.1 µM. Moreover, the CC50 in the test with HT-29 [9] is 38.4 µM; with HT-29 [10] it was 6.1 µM; in the test with HT-29 [11], 41.6 µM; in the test on HT-29 [12] it was 11.2 µM; in the test with HT-29 [13] it was 41 µM; with HT-29 [14], 6.2 µM.
For the compound `CN(CCCNc1ccc(NCCN2CCCC2)c2c1C(=O)c1cnccc1C2=O)CCCNc1ccc(NCCN2CCCC2)c2c1C(=O)c1cnccc1C2=O`, the Ratio in test [1] came to 2.4. In the test on HT-29 [2], this compound displayed a GI50 of 0.5 µM, an LC50 (concentration killing 50% of cells) greater than 100 µM and a TGI of 7.9 µM.
For the compound `CCN(CC)CCn1nc2c3c(c(NCCCN(C)CCCNc4ccc5c6c(nn5CCN(CC)CC)-c5ccncc5C(=O)c46)ccc31)C(=O)c1cnccc1-2`, in the test with HT-29 [2], growth was halved (GI50) at 0.4 µM, the LC50 (concentration killing 50% of cells) was greater than 100 µM and the TGI is greater than 100 µM.
For `CCN(CC)CCCNc1ccc(NCCCN(C)CCCNc2ccc(NCCCN(CC)CC)c3c2C(=O)c2cnccc2C3=O)c2c1C(=O)c1ccncc1C2=O`, the Ratio in test [1] is 1.7. In the test with HT-29 [2], this compound displayed a GI50 of 83 µM, an LC50 (concentration killing 50% of cells) greater than 100 µM and a concentration for total growth inhibition (TGI) greater than 100 µM.
`CN(C)CCCNc1ccc(NCCCN(C)CCCNc2ccc(NCCCN(C)C)c3c2C(=O)c2cnccc2C3=O)c2c1C(=O)c1ccncc1C2=O`: the Ratio in test [1] came out at 2.4. Also, in the test with HT-29 [2], halving of growth (GI50) required 2 µM, the LC50 (concentration killing 50% of cells) is greater than 100 µM and the TGI worked out at 7.9 µM.
Regarding `CCN(CC)CCNc1ccc(NCCCN(C)CCCNc2ccc(NCCN(CC)CC)c3c2C(=O)c2ccncc2C3=O)c2c1C(=O)c1cnccc1C2=O`, the Ratio in test [1] came out at 5. The same compound came in with a GI50 in the test with HT-29 [2] greater than 100 µM.
In the test with HT-29 [2], `CN(C)CCCn1nc2c3c(c(NCCCN(C)CCCNc4ccc5c6c(nn5CCCN(C)C)-c5cnccc5C(=O)c46)ccc31)C(=O)c1ccncc1-2` registered a GI50 of 1.6 µM, an LC50 (concentration killing 50% of cells) greater than 100 µM and a TGI greater than 100 µM.
As for `CN(C)CCn1nc2c3c(c(NCCCN(C)CCCNc4ccc5c6c(nn5CCN(C)C)-c5ccncc5C(=O)c46)ccc31)C(=O)c1cnccc1-2`, in the test on HT-29 [2], growth was halved (GI50) at 0.7 µM, the LC50 (concentration killing 50% of cells) was greater than 100 µM and the TGI was greater than 100 µM.
Consider `CCN(CC)CCn1nc2c3c(c(NCCCN(C)CCCNc4ccc5c6c(nn5CCN(CC)CC)-c5cnccc5C(=O)c46)ccc31)C(=O)c1ccncc1-2`, for which, in the test on HT-29 [2], growth was halved (GI50) at 0.001 µM, the LC50 (concentration killing 50% of cells) was found to be 97 µM and the TGI came out at 4.5 µM.

The GI50 is the concentration at which growth is held to half of that of the control. A high value points to less potent growth inhibition. A word on the TGI: it is the concentration giving total growth inhibition. The low end stands for greater sensitivity of the cells, the high end for lower sensitivity of the cells.

The values above are taken from ChEMBL document CHEMBL1141566, “Synthesis and antitumor evaluation of bis aza-anthracene-9,10-diones and bis aza-anthrapyrazole-6-ones” (2008).
